# Legend:
# [1] = system: CHOP, BiP, and DR5 mRNA in HCT116 cells; experiment: qPCR of UPR target transcripts (CHOP, BiP, DR5); type: cell-based, Homo sapiens
# Method: Cells were grown in 6-well plates and harvested with 0.5 ml of TRIzol reagent (Life Technologies) per manufacturer’s protocol to extract RNA. For cDNA synthesis, 500 ng of total RNA was reverse transcribed with 2 μl of the SuperScript VILO master mix (Life Technologies # 11755050) in a total reaction volume of 10 μl following the manufacturer’s protocol for reaction temperature and duration. The reverse transcription product was diluted to 200 μl with 10 mM Tris-HCl pH 8.2 and used at 1:100 dilution for subsequent RT-PCR reactions.
# PCR samples were prepared as described by manufacturer’s protocols from iQ SYBR Green Supermix (BioRad #17088800).
# For each experiment, qRT-PCR reactions were set up in triplicate and run using a CFX96 Real Time System (Bio-Rad). Quantitation cycles were determined with CFX Manager 3.0 software (Bio-Rad) and then normalized to GAPDH as an internal control.
# GFP (340+341) = experiment: qPCR of GFP transcript (expression of GFP-tagged construct); type: cell-based; details: 24 hr, Rep 2
# [2] = 24 hr, Rep 2, relative to empty traffo, mean of 3 replicates
# [3] = 24 hr, Rep 2, relative to empty traffo, replicate 1
# [4] = 24 hr, Rep 2, relative to empty traffo, replicate 2
# [5] = 24 hr, Rep 2, relative to empty traffo, replicate 3
# [6] = HCT116, 100 nM for 24 hours, avg., norm to GAPDH
# [7] = HCT116, 100 nM for 24 hours, replicate 1
# [8] = HCT116, 100 nM for 24 hours, replicate 2
# [9] = HCT116, 100 nM for 24 hours, replicate 3
# [10] = HCT116, 100 nM for 24 hours, vs GAPDH, replicate 1
# [11] = HCT116, 100 nM for 24 hours, vs GAPDH, replicate 2
# [12] = HCT116, 100 nM for 24 hours, vs GAPDH, replicate 3
# [13] = HCT116, 100 nM Tg for 24 hours, mean of 3 replicates
# [14] = HCT116, 100 nM Tg for 24 hours, replicate 1
# [15] = HCT116, 100 nM Tg for 24 hours, replicate 2
# [16] = HCT116, 100 nM Tg for 24 hours, replicate 3
# [17] = qPCR Rep 2, WT MPZ GFP 1000 ng, or empty traffo + Tg, mean of 3
# [18] = qPCR Rep 2, WT MPZ GFP 1000 ng, or empty traffo + Tg, replicate 1
# [19] = qPCR Rep 2, WT MPZ GFP 1000 ng, or empty traffo + Tg, replicate 2
# [20] = qPCR Rep 2, WT MPZ GFP 1000 ng, or empty traffo + Tg, replicate 3
# [21] = qPCR Rep 2, WT MPZ GFP 1000 ng, or empty traffo + Tg, vs avg GAPDH, replicate 1
# [22] = qPCR Rep 2, WT MPZ GFP 1000 ng, or empty traffo + Tg, vs avg GAPDH, replicate 2
# [23] = qPCR Rep 2, WT MPZ GFP 1000 ng, or empty traffo + Tg, vs avg GAPDH, replicate 3
structure (smiles),measurement,setting,value
"C/C=C(/C)C(=O)O[C@H]1C(C)=C2[C@H]([C@@H]1OC(=O)CCCCCCC)[C@@](C)(OC(C)=O)C[C@H](OC(=O)CCC)[C@@]1(O)[C@H]2OC(=O)[C@@]1(C)O [thapsigargin, reference compound]",avg. fold induction CHOP,[1]; [2],2.825
same,avg. fold induction DR5 total,[1]; [2],2.175
same,fold induction CHOP,[1]; [3],2.975
same,fold induction DR5 total,[1]; [3],2.222
same,fold induction CHOP,[1]; [4],2.927
same,fold induction DR5 total,[1]; [4],2.286
same,fold induction CHOP,[1]; [5],2.573
same,fold induction DR5 total,[1]; [5],2.0182
same,2^-(deltaCq) CHOP,"[1]; 24 hr, Rep 2, replicate 1",0.03423
same,2^-(deltaCq) DR5 total,"[1]; 24 hr, Rep 2, replicate 1",0.06479
same,Cq CHOP,"[1]; 24 hr, Rep 2, replicate 1",23.6206
same,Cq DR5 total,"[1]; 24 hr, Rep 2, replicate 1",22.7
same,"Cq(sample) - avg Cq(GAPDH), CHOP","[1]; 24 hr, Rep 2, replicate 1",4.869
same,"Cq(sample) - avg Cq(GAPDH), DR5 total","[1]; 24 hr, Rep 2, replicate 1",3.948
same,2^-(deltaCq) CHOP,"[1]; 24 hr, Rep 2, replicate 2",0.03367
same,2^-(deltaCq) DR5 total,"[1]; 24 hr, Rep 2, replicate 2",0.06665
same,Cq CHOP,"[1]; 24 hr, Rep 2, replicate 2",23.6444
same,Cq DR5 total,"[1]; 24 hr, Rep 2, replicate 2",22.6592
same,"Cq(sample) - avg Cq(GAPDH), CHOP","[1]; 24 hr, Rep 2, replicate 2",4.892
same,"Cq(sample) - avg Cq(GAPDH), DR5 total","[1]; 24 hr, Rep 2, replicate 2",3.9072
same,2^-(deltaCq) CHOP,"[1]; 24 hr, Rep 2, replicate 3",0.0296
same,2^-(deltaCq) DR5 total,"[1]; 24 hr, Rep 2, replicate 3",0.05885
same,Cq CHOP,"[1]; 24 hr, Rep 2, replicate 3",23.8304
same,Cq DR5 total,"[1]; 24 hr, Rep 2, replicate 3",22.839
same,"Cq(sample) - avg Cq(GAPDH), CHOP","[1]; 24 hr, Rep 2, replicate 3",5.078
same,"Cq(sample) - avg Cq(GAPDH), DR5 total","[1]; 24 hr, Rep 2, replicate 3",4.087
same,"avg. fold induction relative to empty traffo, BiP",[1]; [6],12.0843 fold
same,"avg. fold induction relative to empty traffo, CHOP",[1]; [6],7.5114 fold
same,"avg. fold induction relative to empty traffo, DR5 total",[1]; [6],5.041 fold
same,"fold induction relative to empty traffo, BiP",[1]; [7],11.9233 fold
same,"fold induction relative to empty traffo, CHOP",[1]; [7],7.102 fold
same,"fold induction relative to empty traffo, DR5 total",[1]; [7],5.4959 fold
same,"fold induction relative to empty traffo, BiP",[1]; [8],12.5755 fold
same,"fold induction relative to empty traffo, CHOP",[1]; [8],7.658 fold
same,"fold induction relative to empty traffo, DR5 total",[1]; [8],4.966 fold
same,"fold induction relative to empty traffo, BiP",[1]; [9],11.754 fold
same,"fold induction relative to empty traffo, CHOP",[1]; [9],7.775 fold
same,"fold induction relative to empty traffo, DR5 total",[1]; [9],4.661 fold
same,2^-(deltaCq) BiP,[1]; [10],1.038
same,2^-(deltaCq) CHOP,[1]; [10],0.07495
same,2^-(deltaCq) DR5 total,[1]; [10],0.08912
same,2^-(deltaCq) BiP,[1]; [11],1.095
same,2^-(deltaCq) CHOP,[1]; [11],0.08082
same,2^-(deltaCq) DR5 total,[1]; [11],0.08052
same,2^-(deltaCq) BiP,[1]; [12],1.023
same,2^-(deltaCq) CHOP,[1]; [12],0.08206
same,2^-(deltaCq) DR5 total,[1]; [12],0.07558
same,GAPDH avg. fold induction relative to empty traffo,[1]; [13],1.006
same,GFP avg. fold induction relative to empty traffo,[1]; [13],0.1103
same,ERO1alpha (386+387) avg. fold induction relative to empty traffo,"[1]; HCT116, 100 nM Tg for 24 hours, melt curves for these primers showed two peaks, mean of 3 replicates",0.8588
same,ERO1alpha (386+387) fold induction relative to empty traffo,"[1]; HCT116, 100 nM Tg for 24 hours, melt curves for these primers showed two peaks, replicate 1",0.8482
same,ERO1alpha (386+387) fold induction relative to empty traffo,"[1]; HCT116, 100 nM Tg for 24 hours, melt curves for these primers showed two peaks, replicate 2",0.8572
same,ERO1alpha (386+387) fold induction relative to empty traffo,"[1]; HCT116, 100 nM Tg for 24 hours, melt curves for these primers showed two peaks, replicate 3",0.8711
same,GADD34 (388+389) fold induction relative to empty traffo,[1]; [14],11.4671
same,GAPDH fold induction relative to empty traffo,[1]; [14],1.083
same,GFP fold induction relative to empty traffo,[1]; [14],0.1161
same,GADD34 (388+389) fold induction relative to empty traffo,[1]; [15],11.4954
same,GAPDH fold induction relative to empty traffo,[1]; [15],1.089
same,GFP fold induction relative to empty traffo,[1]; [15],0.1176
same,GADD34 (388+389) fold induction relative to empty traffo,[1]; [16],10.9924
same,GAPDH fold induction relative to empty traffo,[1]; [16],0.847
same,GFP fold induction relative to empty traffo,[1]; [16],0.09722
same,"avg. fold induction relative to WT MPZ DMSO, BiP",[1]; [17],6.727 fold
same,"avg. fold induction relative to WT MPZ DMSO, CHOP",[1]; [17],9.899 fold
same,"avg. fold induction relative to WT MPZ DMSO, DR5 total",[1]; [17],3.489 fold
same,"fold induction relative to WT MPZ DMSO, BiP",[1]; [18],6.3 fold
same,"fold induction relative to WT MPZ DMSO, CHOP",[1]; [18],10.9106 fold
same,"fold induction relative to WT MPZ DMSO, DR5 total",[1]; [18],3.205 fold
same,"fold induction relative to WT MPZ DMSO, BiP",[1]; [19],6.984 fold
same,"fold induction relative to WT MPZ DMSO, CHOP",[1]; [19],9.299 fold
same,"fold induction relative to WT MPZ DMSO, DR5 total",[1]; [19],3.841 fold
same,"fold induction relative to WT MPZ DMSO, BiP",[1]; [20],6.897 fold
same,"fold induction relative to WT MPZ DMSO, CHOP",[1]; [20],9.4871 fold
same,"fold induction relative to WT MPZ DMSO, DR5 total",[1]; [20],3.4208 fold
same,2^-(deltaCq) BiP,[1]; [21],1.043
same,2^-(deltaCq) CHOP,[1]; [21],0.04115
same,2^-(deltaCq) DR5 total,[1]; [21],0.04765
same,2^-(deltaCq) BiP,[1]; [22],1.156
same,2^-(deltaCq) CHOP,[1]; [22],0.03507
same,2^-(deltaCq) DR5 total,[1]; [22],0.05711
same,2^-(deltaCq) BiP,[1]; [23],1.142
same,2^-(deltaCq) CHOP,[1]; [23],0.03578
same,2^-(deltaCq) DR5 total,[1]; [23],0.05086
same,avg. fold induction GFP (340+341),"GFP (340+341); relative to empty traffo, mean of 3 replicates",0.3377
same,fold induction GFP (340+341),"GFP (340+341); relative to empty traffo, replicate 1",0.335
same,fold induction GFP (340+341),"GFP (340+341); relative to empty traffo, replicate 2",0.3372
same,fold induction GFP (340+341),"GFP (340+341); relative to empty traffo, replicate 3",0.341
same,2^-(deltaCq) GFP (340+341),GFP (340+341); replicate 1,5.66e-5
same,Cq GFP (340+341),GFP (340+341); replicate 1,32.8608
same,"Cq(sample) - avg Cq(GAPDH), GFP (340+341)",GFP (340+341); replicate 1,14.1088
same,2^-(deltaCq) GFP (340+341),GFP (340+341); replicate 2,5.698e-5
same,Cq GFP (340+341),GFP (340+341); replicate 2,32.8514
same,"Cq(sample) - avg Cq(GAPDH), GFP (340+341)",GFP (340+341); replicate 2,14.0993
same,2^-(deltaCq) GFP (340+341),GFP (340+341); replicate 3,5.761e-5
same,Cq GFP (340+341),GFP (340+341); replicate 3,32.8353
same,"Cq(sample) - avg Cq(GAPDH), GFP (340+341)",GFP (340+341); replicate 3,14.0832

# Reference: paper PMC7041945, “Misfolded proteins bind and activate death receptor 5 to trigger apoptosis during unresolved endoplasmic reticulum stress” (eLife, 2020)
